Experimental data taken from US10004791B2, “Peptide vaccines against PCSK9” (AFFIRIS AG, priority 2014, dated 2018).

Tests used:
human PCSK9 protein = test: Protein ELISA: titers of vaccine-induced PCSK9-specific antibodies in plasma of immunized mice; format: in vivo, BALB/c mice; conditions: for titers against huPCSK9 (ODmax/2): mean titer, n=5 BALB/c mice/group, s.c. 4 x 15 μg net peptide coupled to KLH, Alhydrogel, plasma 2 weeks after final injection, titer = serum dilution at 50% ODmax; for capacity to elicit a humoral immune response targeting PCSK9: result in words
Method: (§1) The peptides were conjugated via the heterobifunctional linker GMBS (4-Maleimidobutyric acid N-hydroxysuccinimide ester) to KLH (Keyhole Limpet Hemocyanin).
5 BALB/c mice were subcutaneously immunized. Mice had access to food and water ad libitum and were kept under a 12 h light/dark cycle. The age of mice at the beginning of experiments was 8 to 10 weeks.
(§2) Mice were injected four times in 2 week intervals with 15 μg of net peptide coupled to KLH and adsorbed to Alhydrogel as adjuvant in a volume of 1 ml in total.
(§3) Blood was taken approximately 2 weeks after the final injection.
To determine the immunogenicity of the vaccines, and thus to identify the amount of PCSK9 specific antibodies in the plasma of immunized animals, ELISA immunoassay was performed. The ELISA immunoassay generates a signal which can be easily quantified and represents a quantitative measure of the amount of vaccine induced PCSK9-specific antibodies. Thus the titers as measured by ELISA correlate directly with the amount (μg/ml) of target specific antibodies in the plasma sample of treated animals. All plasma samples were collected two weeks after the final immunization and equality treated. In order to have a direct comparison, the quantitative evaluation by the PCSK9 Protein ELISA immunoassay of the vaccine induced PCSK9-specific antibodies and the comparison to their relative controls (originals sequence and negative control) was performed for all samples simultaneously. For this purpose, ELISA plates were coated with recombinantly expressed human PCSK9 protein. Unspecific binding was blocked by incubation with blocking buffer (1% BSA in PBS). Appropriate serum dilutions (with a starting dilution of 1:100) were added to the wells, serially diluted 1:2 fold (12 dilution steps) and incubated for approximately 1 hour. Bound antibodies were detected by incubation with anti-mouse IgG antibody, ABTS was added as substrate and the OD at 405 nm was measured. As negative control sera from the control group injected with an irrelevant peptide were analyzed. The titers were defined as the dilution of the serum where 50% of the ODmax in the assay is reached.

huPCSK9 = test: Inhibition of furin cleavage of huPCSK9 by plasma from vaccinated mice (SDS-PAGE / Western blot); format: biochemical, human; conditions: 4 μl mouse plasma, 250 ng biotinylated huPCSK9, 2 U furin overnight RT; FIG. 3; result in words
Method: The furin cleavage reaction was performed with 2 Units Furin (˜110 ng) (New England Biolabs) in PCSK9 buffer containing 100 mM Hepes Buffer pH 7.5, 5% Triton-X and 1 mM CaCl. In details, 4 μl mouse plasma from VARIOTOPE®s vaccinated mice was incubated with 250 ng biotinylated huPCSK9 (BPS Bioscience) in PCSK9 buffer for 1 h at room temperature. Subsequently, 2U Furin (˜110 ng) (New England Biolabs) was added to the reaction solution and incubated over night at RT. The reaction product was analyzed by SDS-PAGE under reducing conditions.

[1] = Total cholesterol assay in plasma of immunized mice (15 μg net peptide, four injections); format: in vivo, BALB/c mice; conditions: for TC in % (FIG. 2A) / TC in % (FIG. 2B): mean total cholesterol, single AA exchange; for TC in % (FIG. 2A): n=3 mice/group, negative control group (irrelevant peptide) set as 100%; for TC in % (FIG. 2B) / TC in % multiple AA exchanges (FIG. 2C): n=5 mice/group, negative control group set as 100%; for TC in % multiple AA exchanges (FIG. 2C): total cholesterol
Method: as §1
[…] Mice had access to food and water ad libitum and were kept under a 12 h light/dark cycle. The age of mice at the beginning of experiments was 8 to 10 weeks.
as §2, §3
All plasma samples were collected two weeks after the final immunization and equality treated. Total cholesterol (TC) measurements were performed simultaneously for all samples and side by side compared to their related controls (originals sequence and negative control). The simultaneous quantitative measurement of the plasma TC levels in mg/dL was measured by LabAssay™ Cholesterol Kit (Wako). In details, upon incubation with the chromogen reagent containing cholesterol esterase, the cholesterol esters in the samples were decomposed into free cholesterol and fatty acids. Subsequently the free cholesterol was oxidized by the cholesterol oxidase, leading to the simultaneously release of hydrogen peroxide. The produced hydrogen peroxide let DAOS and 4-Aminoantipyrin oxidize and condensate quantitatively by peroxidase (HRP), which produced blue pigment. Optical density was measured at 600 nm and quantification of the TC was calculated according to a standard curve.

Substance | titers against huPCSK9 (ODmax/2) (human PCSK9 protein) | also measured
22 (PEEDGTRFHRQALK) [compound 22] | 8694 | –
PEEDGTRFHRKASK [SEQ ID NO: 18] | – | inhibition of furin cleavage of mature PCSK9 (aa153-692) / formation of truncated PCSK9 (aa219-692, ~50 kDa) by induced antibodies (huPCSK9): inhibit the furin cleavage of the mature PCSK9
9 (TEEDGTRFHRQASK) [compound 9] | 23944 | –
PQEDGTRFHRQASK [SEQ ID NO: 10] | – | inhibition of furin cleavage of mature PCSK9 (aa153-692) / formation of truncated PCSK9 (aa219-692, ~50 kDa) by induced antibodies (huPCSK9): inhibit the furin cleavage of the mature PCSK9
1 (PEEDGTRFHRQASK) [compound 1] | 12074 | TC in % (FIG. 2A) [1]: 81%; TC in % (FIG. 2B) [1]: 89%; TC in % multiple AA exchanges (FIG. 2C) [1]: 81%
39 (PEEDGTRFHRQAST) [compound 39] | 13172 | –
15 (PEEDGTRFHMQASK) [compound 15] | 15556 | –
5 (PEEDGTRFHAQASK) [compound 5] | 33442 | –
36 (PEEDGTRFHRTASK) [compound 36] | 29984 | TC in % (FIG. 2B) [1]: 72%
2 (AEEDGTRFHRQASK) [compound 2] | 36869 | –
PEWDGTRFHRQASK [SEQ ID NO: 26] | – | capacity to elicit a humoral immune response targeting PCSK9 (human PCSK9 protein): do not have the capacity to elicit a humoral immune response targeting PCSK9
18 (PEEDGTRFHRKASK) [compound 18] | 30537 | TC in % (FIG. 2A) [1]: 81%; inhibition of furin cleavage of mature PCSK9 (aa153-692) / formation of truncated PCSK9 (aa219-692, ~50 kDa) by induced antibodies (huPCSK9): inhibit the formation of truncated furin cleaved PCSK9
35 (PEEDGTRFHSQASK) [compound 35] | 29223 | –
12 (PEEDGSRFHRQASK) [compound 12] | 12636 | –
8 (PEEDGTRFHRQASA) [compound 8] | 23638 | –
7 (PEEDGTRFHRQAAK) [compound 7] | 15676 | –
27 (PEEDKTRFHRQASK) [compound 27] | 7154 | –
11 (PKEDGTRFHRQASK) [compound 11] | 6610 | –
26 (PEWDGTRFHRQASK) [compound 26] | 840 | –
6 (PEEDGTRFHRAASK) [compound 6] | 22475 | –
30 (PEEDGTRFTRQASK) [compound 30] | 9519 | –
38 (PEEDGTRFHRQASS) [compound 38] | 31481 | –
37 (PEEDGTRFHRQTSK) [compound 37] | 25826 | –
23 (PEEDGTRFHRQASR) [compound 23] | 14722 | TC in % (FIG. 2A) [1]: 70%
44 (PEEDGSRFHRQATK) [compound 44] | 20684 | TC in % multiple AA exchanges (FIG. 2C) [1]: 74%
20 (PEEDGTRFHRQATK) [compound 20] | 10813 | –

Substance | titers against huPCSK9 (ODmax/2) (human PCSK9 protein) | also measured
25 (KEEDGTRFHRQASK) [compound 25] | 19315 | –
17 (PEEDGTRFHRRASK) [compound 17] | 28996 | TC in % (FIG. 2A) [1]: 81%; inhibition of furin cleavage of mature PCSK9 (aa153-692) / formation of truncated PCSK9 (aa219-692, ~50 kDa) by induced antibodies (huPCSK9): inhibit the formation of truncated furin cleaved PCSK9
PEEDGTRFHRQASR [SEQ ID NO: 23] | – | inhibition of furin cleavage of mature PCSK9 (aa153-692) / formation of truncated PCSK9 (aa219-692, ~50 kDa) by induced antibodies (huPCSK9): inhibit the furin cleavage of the mature PCSK9
10 (PQEDGTRFHRQASK) [compound 10] | 29228 | TC in % (FIG. 2A) [1]: 78%; inhibition of furin cleavage of mature PCSK9 (aa153-692) / formation of truncated PCSK9 (aa219-692, ~50 kDa) by induced antibodies (huPCSK9): inhibit the formation of truncated furin cleaved PCSK9
32 (PEEDGTRFGRQASK) [compound 32] | 822 | –
33 (PEEDGTRFMRQASK) [compound 33] | 10651 | –
41 (PEEDGSRFHKQASK) [compound 41] | 37296 | TC in % multiple AA exchanges (FIG. 2C) [1]: 66%
13 (PEEDGTRFHQQASK) [compound 13] | 18490 | –
21 (PEEDGTRFHRQANK) [compound 21] | 15303 | –
31 (PEEDGTRFVRQASK) [compound 31] | 11850 | –
PEEDGTGFHRQASK [SEQ ID NO: 28] | – | capacity to elicit a humoral immune response targeting PCSK9 (human PCSK9 protein): do not have the capacity to elicit a humoral immune response targeting PCSK9
43 (PEEDGSRFHRRASK) [compound 43] | 29435 | –
16 (PEEDGTRFHREASK) [compound 16] | 18670 | –
34 (PEEDGTRFHPQASK) [compound 34] | 20318 | –
PEEDGTRFGRQASK [SEQ ID NO: 32] | – | capacity to elicit a humoral immune response targeting PCSK9 (human PCSK9 protein): do not have the capacity to elicit a humoral immune response targeting PCSK9
3 (PAEDGTRFHRQASK) [compound 3] | 2774 | –
45 (PEEDGSRFHRRATK) [compound 45] | 11097 | –
24 (PEEDGTRFHRQASL) [compound 24] | 19471 | –
42 (PEEDGSRFHMQASK) [compound 42] | 18599 | –
40 (PEEDGTRFHRQASV) [compound 40] | 22678 | –
14 (PEEDGTRFHKQASK) [compound 14] | 17795 | –
28 (PEEDGTGFHRQASK) [compound 28] | 0 | –
29 (PEEDGTRFSRQASK) [compound 29] | 33111 | –
4 (PEEDGTRFARQASK) [compound 4] | 21494 | –
PEEDGTRFHRRASK [SEQ ID NO: 17] | – | inhibition of furin cleavage of mature PCSK9 (aa153-692) / formation of truncated PCSK9 (aa219-692, ~50 kDa) by induced antibodies (huPCSK9): inhibit the furin cleavage of the mature PCSK9
19 (PEEDGTRFHRQSSK) [compound 19] | 41310 | –
